Entries after “also recorded” stand apart in the source; their conditions may differ. Where a SMILES comes first, the peptide text is derived from it. [ ]: non-standard residue; d: D form. Phe(4-I) = N[C@@H](Cc1ccc(I)cc1)C(=O)O
Biological target: T1, HIF-1α/HIF-1β PPI (Homo sapiens, UniProt Q16665)
T1 construct: endogenous in cells; host or cells: HeLa
Test: Proximity-ligation assay (PLA) in DFX-treated HeLa cells
Format: cell-based
Conditions: 50 μM compound vs DMSO
Method: We used a previously reported[26] proximity-ligation assay (PLA) to assess whether cyclo-CRLII(4-iodo)F disrupts the HIF-1α/HIF-1β PPI in cells. HeLa cells were treated with the hypoxia mimic desferrioxamine (DFX) and treated with either DMSO (control) or 50 μM of cyclo-CRLII(4-iodo)F; in the control-treated samples, we observed the red puncta associated with the PLA signal from the targeted PPI (Figure 6c, upper panels).
All reagents were purchased from Fisher Scientific or Sigma Aldrich UK unless specified otherwise.
Restriction enzymes and microbiology reagents were purchased from New England Biolabs Inc., Fisher Scientific (UK) or Promega (UK) and were used as directed by the manufacturer. Primers and oligonucleotides were synthesised by Integrated DNA Technologies (UK). DNA sequencing was carried out by Eurofins MWG Operon (Germany).
Construction of the RTHS and SICLOPPS library, screening, purification of recombinant HIF proteins, and the PLA was conducted as previously described in Miranda et al., J. Am. Chem. Soc., 2013, 135(28); […]
The labelled protein was separated from unreacted dye by elution through a PD minitrap G-25 column (GE healthcare). […] Extent of labelling was measured by the absorbance obtained using the UV-vis mode on a NanoDrop ND-1000 Spectrophotometer (NanoDrop Technologies, USA). […]

T1 sequence (Q16665 whole entry): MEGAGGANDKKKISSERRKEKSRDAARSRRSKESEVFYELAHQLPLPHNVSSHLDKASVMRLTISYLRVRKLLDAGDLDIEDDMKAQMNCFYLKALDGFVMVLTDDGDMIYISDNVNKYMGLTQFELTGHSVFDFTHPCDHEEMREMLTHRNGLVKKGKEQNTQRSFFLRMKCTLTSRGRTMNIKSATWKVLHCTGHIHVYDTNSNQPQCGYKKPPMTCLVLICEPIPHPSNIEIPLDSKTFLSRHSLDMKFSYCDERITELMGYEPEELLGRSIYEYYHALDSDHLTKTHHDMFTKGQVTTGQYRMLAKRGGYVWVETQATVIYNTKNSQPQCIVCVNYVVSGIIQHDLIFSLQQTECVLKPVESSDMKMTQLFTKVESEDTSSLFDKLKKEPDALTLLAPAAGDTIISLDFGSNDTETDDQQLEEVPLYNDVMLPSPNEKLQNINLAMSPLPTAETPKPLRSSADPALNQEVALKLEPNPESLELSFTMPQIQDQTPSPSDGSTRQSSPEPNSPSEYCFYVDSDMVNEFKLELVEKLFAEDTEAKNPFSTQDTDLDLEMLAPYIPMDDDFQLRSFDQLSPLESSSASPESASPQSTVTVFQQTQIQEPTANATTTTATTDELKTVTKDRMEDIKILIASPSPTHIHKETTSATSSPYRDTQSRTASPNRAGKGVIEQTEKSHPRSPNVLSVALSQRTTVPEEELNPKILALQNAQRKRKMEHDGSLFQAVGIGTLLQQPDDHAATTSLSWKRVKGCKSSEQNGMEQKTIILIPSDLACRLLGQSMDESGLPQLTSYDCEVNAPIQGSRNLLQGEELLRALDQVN

CC[C@H](C)[C@@H]1NC(=O)[C@H](CC(C)C)NC(=O)[C@H](CCCNC(=N)N)NC(=O)[C@H](CS)NC(=O)[C@H](Cc2ccc(I)cc2)NC(=O)[C@H]([C@@H](C)CC)NC1=O [cyclo-CRLII(4-iodo)F] (cyclo(CRLII[Phe(4-I)]))
PLA signal (red puncta) of the HIF-1α/HIF-1β PPI: red puncta are absent; also recorded: the red puncta were not observed
